Experiment [1] concerns P. acnes NCTC 737. Put plainly: Minimum bactericidal concentration (MBC) assay. The format is cell-based, Propionibacterium acnes. The protocol:
(§1) (b) Minimum Bactericidal Concentration (MBC) Assay
(§2) Following incubation they were examined visually for bacterial growth.

Experiment [2] has as its system P. acnes NCTC 737. Put plainly: Disc diffusion assay (DDA), also supplemented. For orientation: Agar diffusion results depend on both activity and mobility in agar.
For experiment [3], the system named is P. acnes NCTC 737. Put plainly: Minimum inhibitory concentration (MIC) assay. The format is cell-based, Propionibacterium acnes. From the text: (§3) (a) Minimum Inhibitory Concentration (MIC) Assay
(§4) The culture media were as described above.
(§5) The assays included both negative (culture medium with no micro-organisms) and positive (culture medium plus diluting solvent plus micro-organism) controls.

Experiment [4] concerns S. aureus ATCC 29213. In words: Synergy disc diffusion assay (SDDA), also supplemented.
Experiment [5] relates to S. aureus ATCC 29213. Put plainly: Disc diffusion assay (DDA), also supplemented.
Experiment [6] deals with P. acnes NCTC 737. Put plainly: Synergy disc diffusion assay (SDDA), also supplemented.
Description: The propionibacteria were cultured and maintained on Wilkins-Chalgren Anaerobe Medium (agar and broth) at pH 6.0; all cultures were incubated anaerobically at 37° C. for 72 hours.
(e) Synergy Disc Diffusion Assay (SDDA)
This is a variation on the DDA method, in which two compounds are tested together for their combined antimicrobial activity.
Two test compounds A and B were placed on a single paper disc and the above described DDA procedure repeated.
(f) Supplemented Disc Diffusion Assays
For assays using Propionibacterium spp. strains the supplements used in the examples below were lipid (either Tween™ 80 or triolein, both at 1% v/v) and sodium chloride (100 mM).
Experiment [7] deals with S. aureus ATCC 29213. Put plainly: Minimum inhibitory concentration (MIC) assay. It counts as cell-based, Staphylococcus aureus.
From the text: as §3, §4, §5

For experiment [8], the system named is S. aureus ATCC 29213. Put plainly: Minimum bactericidal concentration (MBC) assay. It counts as cell-based, Staphylococcus aureus. On the procedure:
as §1, §2

[9] abbreviates: copper salt alone, P. acnes NCTC 737.
[10] abbreviates: copper salt alone, 200 μg per disc (silicate 62 μg), sodium chloride (100 mM).
Setting [11] is: copper salt + TBHQ on one disc, 200 μg of each (silicate 62 μg), unsupplemented.
The mark [12] stands for this setting: copper salt + TBHQ vs larger zone of either compound alone, unsupplemented.
The mark [13] stands for this setting: copper salt + TBHQ, salt and serum supplements.
[14] abbreviates: copper salt + TBHQ, unsupplemented.
[15] abbreviates: copper salt + TBHQ, salt and lipid (1% (v/v) Tween 80).
The mark [16] stands for this setting: copper salt alone, S. aureus ATCC 29213.

The MBC is the lowest tested concentration that kills the bacteria rather than only halting them.

Where two headings read alike, the source gives them in different places. Some results are limits rather than exact numbers.
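Wherever DDA + salt & lipid is given: paper disc carrying compound placed on inoculated Wilkins-Chalgren Anaerobe agar pH 6.0, with lipid or NaCl supplement where listed, anaerobic 37 °C for 72 h, inhibition zone diameter read.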
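Wherever SL (S)DDA is given: paper disc carrying compound placed on inoculated Wilkins-Chalgren Anaerobe agar pH 6.0, with lipid or NaCl supplement where listed, anaerobic 37 °C for 72 h, inhibition zone diameter read.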
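Wherever SS SDDA area increase is given: disc diffusion on Mueller-Hinton agar at pH 7.2, aerobic incubation at 37 °C lasting 19-20 h, two compounds assessed jointly for combined antimicrobial effect.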
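Wherever SS SDDA increase is given: disc diffusion on Mueller-Hinton agar at pH 7.2, aerobic incubation at 37 °C lasting 19-20 h, two compounds assessed jointly for combined antimicrobial effect.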
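Wherever SS SDDA with TBHQ is given: disc diffusion on Mueller-Hinton agar at pH 7.2, aerobic incubation at 37 °C lasting 19-20 h, two compounds assessed jointly for combined antimicrobial effect.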

On to `[Cu+].[I-]` [Copper (I) iodide], for which the MBC was 31.25 µg/mL in the experiment on P. acnes NCTC 737 [1] (setting [9]) and over 250 µg/mL with S. aureus ATCC 29213 [8] (setting [16]). Further, the “DDA + lipid” value in the experiment on P. acnes NCTC 737 [2] (copper salt alone, 200 μg per disc (silicate 62 μg), 1% (v/v) Tween 80) came to 34.64 mm; in the experiment with S. aureus ATCC 29213 [5] (copper salt alone, 200 μg per disc (silicate 62 μg), Tween 80 at 1% v/v), 0 mm. In addition, in the experiment with P. acnes NCTC 737 [2] (copper salt alone, 200 μg per disc (silicate 62 μg), salt and 1% (v/v) Tween 80), the “DDA + salt & lipid” value is given as 46.20 mm. For the same compound, the “DDA + salt” value amounted to 43.92 mm with P. acnes NCTC 737 [2] (setting [10]) and 0 mm in the experiment on S. aureus ATCC 29213 [5] (setting [10]). For the same compound, the MIC is 7.8 µg/mL in the experiment with P. acnes NCTC 737 [3] (setting [9]) and over 250 µg/mL in the experiment with S. aureus ATCC 29213 [7] (setting [16]). For the same compound, the MIC/MBC ratio in the experiment on P. acnes NCTC 737 [3] (setting [9]) turned out to be 0.25. In addition, in the experiment with S. aureus ATCC 29213 [4] (copper salt + TBHQ on one disc, 200 μg of each (silicate 62 μg), salt and serum supplements), the “SS SDDA with TBHQ” value is recorded as 45.26 mm. Further, the “SDDA with TBHQ” value with S. aureus ATCC 29213 [4] (setting [11]) came out at 52.74 mm; with P. acnes NCTC 737 [6] (setting [11]), 70.08 mm. Moreover, the SDDA increase in the experiment on S. aureus ATCC 29213 [4] (setting [12]) was 12.32 mm; in the experiment with P. acnes NCTC 737 [6] (setting [12]), 21.48 mm. Moreover, the “SS SDDA area increase” value in the experiment with S. aureus ATCC 29213 [4] (setting [13]) came out at 7.37%. Also, in the experiment with S. aureus ATCC 29213 [4] (setting [13]), the “SS SDDA increase” value was determined as 1.58 mm. Besides, the SDDA area increase in the experiment with S. aureus ATCC 29213 [4] (setting [14]) was found to be 70.25%; in the experiment on P. acnes NCTC 737 [6] (setting [14]), 107.92%. In the experiment with S. aureus ATCC 29213 [5] (copper salt alone, 200 μg per disc (silicate 62 μg), salt and horse serum (5% v/v)), the “DDA + salt & serum” value is listed as 0 mm. The “SL SDDA with TBHQ” value in the experiment on P. acnes NCTC 737 [6] (copper salt + TBHQ on one disc, 200 μg of each (silicate 62 μg), salt and lipid (1% (v/v) Tween 80)) is recorded as 64.77 mm. The “SL SDDA area increase” value in the experiment with P. acnes NCTC 737 [6] (setting [15]) is 96.51%. Further, in the experiment with P. acnes NCTC 737 [6] (setting [15]), the “SL SDDA increase” value turned out to be 18.56 mm.

Consider `CC(=O)[O-].CC(=O)[O-].[Cu+2]` [Copper (II) acetate], for which the MBC in the experiment on P. acnes NCTC 737 [1] was 31.25 µg/mL. In the experiment on P. acnes NCTC 737 [2], the DDA is 53.61 mm, the “DDA + lipid” value amounted to 42.06 mm, the “DDA + salt” value turned out to be 48.25 mm and the “DDA + salt & lipid” value was determined as 49.54 mm. Moreover, in the experiment on P. acnes NCTC 737 [3], the MIC was determined as 7.8 µg/mL and the MIC/MBC ratio turned out to be 0.25. Also, in the experiment with S. aureus ATCC 29213 [4], the SDDA area increase is 1.59%, the SDDA increase is 0.32 mm, the “SDDA with TBHQ” value came to 40.74 mm and the “SS SDDA area increase” value is reported as −57.34%. In addition, in the experiment with S. aureus ATCC 29213 [4], the “SS SDDA increase” value is listed as −15.15 mm and the “SS SDDA with TBHQ” value turned out to be 28.53 mm. Besides, in the experiment with S. aureus ATCC 29213 [5], the DDA is on record as 0 mm, the “DDA + lipid” value was 0 mm, the “DDA + salt” value is 0 mm and the “DDA + salt & serum” value is reported as 0 mm. Besides, in the experiment on P. acnes NCTC 737 [6], the SDDA area increase is 56%, the SDDA increase was found to be 13.35 mm, the “SDDA with TBHQ” value came out at 66.96 mm and the “SL SDDA area increase” value is given as 64.92%. In addition, in the experiment with P. acnes NCTC 737 [6], the “SL SDDA increase” value turned out to be 14.08 mm and the “SL SDDA with TBHQ” value is listed as 63.62 mm. Besides, the MIC against S. aureus ATCC 29213 [7] was over 250 µg/mL. In the experiment with S. aureus ATCC 29213 [8], this compound displayed an MBC of over 250 µg/mL.

For the compound `O=S(=O)([O-])[O-].[Cu+2]` [Copper (II) sulphate, copper (II) sulphate], the MBC in the experiment with P. acnes NCTC 737 [1] came to 31.25 µg/mL. In addition, in the experiment with P. acnes NCTC 737 [2], the “(S)DDA” value is 51.73 (±1.48) mm and the “SL (S)DDA” value is recorded as 51.10 (±3.17) mm. Further, in the experiment on P. acnes NCTC 737 [3], the MIC is 15.6 µg/mL and the MIC/MBC ratio is recorded as 0.5. In addition, in the experiment with S. aureus ATCC 29213 [5], the “(S)DDA” value is recorded as 0 mm, the “SS (S)DDA” value was 0 mm and the “activity of copper salt alone (in words)” value is “inactive”. In the experiment on S. aureus ATCC 29213 [7], the MIC was 1000 μml and the MIC/MBC ratio turned out to be 1. Also, the MBC in the experiment on S. aureus ATCC 29213 [8] is 1000 µg/mL.

(Values after patent US20090246292A1, “ANTIMICROBIAL FORMULATIONS COMPRISING A QUINONE AND A COPPER SALT” (priority 2006, published 2009).)
